In PubChem BioAssay AID212 (DTP/NCI, 2004):
Where “and” joins values, the source holds several entries; their conditions need not be identical. Equal values may be shown once. Inconclusive results are not listed.

System: BDF1 mice, colon carcinoma 38 sc, T/C %
Experiment: NCI In Vivo Anticancer Drug Screen. Data for tumor model Colon Carcinoma 38 (subcutaneous) in B6D2F1 (BDF1) mice
Conditions: endpoint: median tumor weight (est.), higher = larger tumour
Procedure, shortened: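 Ratio of survival or tumor size, compound-treated animals relative to vehicle controls, in tumor-bearing mice.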

[1] = dose: 12.5 mg/kg/injection, schedule: Q07DX002 (ip), vehicle: saline with Tween-80
[2] = dose: 25.0 mg/kg/injection, schedule: Q07DX002 (ip), vehicle: saline with Tween-80
[3] = dose: 50.0 mg/kg/injection, schedule: Q07DX002 (ip), vehicle: Klucel (hydroxypropylcellulose) (HPC)
[4] = dose: 100.0 mg/kg/injection, schedule: Q07DX002 (ip), vehicle: Klucel (hydroxypropylcellulose) (HPC)
[5] = dose: 200.0 mg/kg/injection, schedule: Q07DX002 (ip), vehicle: Klucel (hydroxypropylcellulose) (HPC)
[6] = dose: 400.0 mg/kg/injection, schedule: Q07DX002 (ip), vehicle: Klucel (hydroxypropylcellulose) (HPC)
[7] = dose: 6.25 mg/kg/injection, schedule: Q07DX002 (ip), vehicle: saline with Tween-80

Compound: O=C1NC(=O)C2C3C=CC(C12)C1C2C(=O)NC(=O)C2C31 (stereo not given)
- T/C (dose: 400.0 mg/kg/injection, schedule: Q07DX002 (ip), vehicle: saline with Tween-80): 29 % of control and 50 % of control

Compound: CCCCCCCCCCCCCCCCS(=O)CC(O)COC(=O)c1ccc(C(=O)OCC(O)CS(=O)CCCCCCCCCCCCCCCC)cc1 (stereo not given)
- T/C (dose: 12.5 mg/kg/injection, schedule: Q07DX002 (ip), vehicle: saline + alcohol): 111 % of control
- T/C (dose: 25.0 mg/kg/injection, schedule: Q07DX002 (ip), vehicle: saline + alcohol): 98 % of control
- T/C (dose: 50.0 mg/kg/injection, schedule: Q07DX002 (ip), vehicle: saline + alcohol): 98 % of control
- T/C (dose: 100.0 mg/kg/injection, schedule: Q07DX002 (ip), vehicle: saline + alcohol): 117 % of control
- T/C (dose: 200.0 mg/kg/injection, schedule: Q07DX002 (ip), vehicle: saline + alcohol): 76 % of control
- T/C (dose: 400.0 mg/kg/injection, schedule: Q07DX002 (ip), vehicle: saline + alcohol): 104 % of control

Compound: CC12CCC3C(CCC4CC(OC(=O)Cc5ccc(N(CCCl)CCCl)cc5)CCC43C)C1CCC(=O)N2 (stereo not given)
- T/C (dose: 1.5 mg/kg/injection, schedule: Q07DX002 (ip), vehicle: saline with Tween-80): 121 % of control
- T/C (dose: 3.0 mg/kg/injection, schedule: Q07DX002 (ip), vehicle: saline with Tween-80): 77 % of control and 91 % of control
- T/C (dose: 6.0 mg/kg/injection, schedule: Q07DX002 (ip), vehicle: saline with Tween-80): 47 % of control and 48 % of control
- T/C (dose: 24.0 mg/kg/injection, schedule: Q07DX002 (ip), vehicle: saline with Tween-80): 27 % of control and 33 % of control

Compound: CN1C(=O)C(=Cc2ccc(O)cc2)C(=O)N(C)C1=O
- T/C [1]: 105 % of control
- T/C [2]: 53 % of control

Compound: CC1(O)CC23CC(O)C4(O)C(CC(O)C4(C)C)C(C)(O)C2CCC1C3O (stereo not given)
- T/C (dose: 0.25 mg/kg/injection, schedule: Q07DX002 (ip), vehicle: Klucel (hydroxypropylcellulose) (HPC)): 102 % of control
- T/C (dose: 0.5 mg/kg/injection, schedule: Q07DX002 (ip), vehicle: Klucel (hydroxypropylcellulose) (HPC)): 53 % of control

Compound: Cc1ccc(C2NC(=O)c3ccccc3N2)s1 (stereo not given)
- T/C (dose: 25.0 mg/kg/injection, schedule: Q07DX002 (ip), vehicle: Klucel (hydroxypropylcellulose) (HPC)): 99 % of control
- T/C [3]: 92 % of control
- T/C [4]: 103 % of control
- T/C [5]: 92 % of control
- T/C [6]: 84 % of control
- T/C (dose: 800.0 mg/kg/injection, schedule: Q07DX002 (ip), vehicle: Klucel (hydroxypropylcellulose) (HPC)): 90 % of control

Compound: COC(=O)[C@@H]1c2cc3c(c(O)c2[C@@H](OC)C[C@@]1(C)O)C(=O)c1c(O)cc2c(c1C3=O)OC1O[C@@]2(C)[C@H](O)[C@@H](N(C)C)[C@@H]1O
- T/C (dose: 6.25 mg/kg/injection, schedule: Q07DX002 (ip), vehicle: saline): 101 % of control
- T/C (dose: 12.5 mg/kg/injection, schedule: Q07DX002 (ip), vehicle: saline): 115 % of control and 121 % of control
- T/C (dose: 12.5 mg/kg/injection, schedule: Q07DX003 (ip), vehicle: suspension in saline): 124 % of control
- T/C (dose: 25.0 mg/kg/injection, schedule: Q07DX002 (ip), vehicle: saline): 102 % of control
- T/C (dose: 50.0 mg/kg/injection, schedule: Q07DX003 (ip), vehicle: suspension in saline): 114 % of control
- T/C (dose: 100.0 mg/kg/injection, schedule: Q07DX003 (ip), vehicle: suspension in saline): 106 % of control
- T/C (dose: 200.0 mg/kg/injection, schedule: Q07DX003 (ip), vehicle: suspension in saline): 104 % of control
- T/C (dose: 400.0 mg/kg/injection, schedule: Q07DX003 (ip), vehicle: suspension in saline): 85 % of control

Compound: COC1=CC(=O)N(C(=O)C2CSC(C(CO)NC(=O)c3csc(/C=N/O)n3)=N2)C1 (stereo not given)
- T/C [3]: 114 % of control
- T/C [4]: 110 % of control
- T/C [5]: 150 % of control
- T/C [6]: 88 % of control

Compound: NC(=S)Nc1cccc2ccccc12
- T/C [7]: 164 % of control
- T/C [1]: 151 % of control
- T/C [2]: 162 % of control

Compound: Nc1nc(N)c2c(ccc3c2ccn3Cc2cccc([N+](=O)[O-])c2)n1
- T/C (dose: 3.12 mg/kg/injection, schedule: Q07DX002 (ip), vehicle: saline with Tween-80): 85 % of control
- T/C [7]: 80 % of control
- T/C [1]: 72 % of control
- T/C [2]: 14 % of control
